In PMC9899896, “Application of a new approach methodology (NAM)-based strategy for genotoxicity assessment of data-poor compounds” (Frontiers in Toxicology, 2023):

Tests used:
[1] = system: human lymphoblastoid TK6 cells; experiment: MultiFlow DNA Damage assay (γH2AX, p53, p-H3, polyploidy); type: cell-based; settings: for MultiFlow summary classification (call and MoA): TK6 cells, 4H and 24H sampling; for MultiFlow MoA classification: GEF-based call, in at least one S9 condition; for MultiFlow biomarkers with responses: fold-increase over solvent control
Protocol: Treated cells were gently resuspended and 25 µL/well was mixed thoroughly with the labeling solution. The plate was incubated for 30 min at room temperature shielded from light.
The γH2AX and p53 endpoints were measured based on their median fluorescence intensity (i.e., mean channel fluorescence or MCF) relative to the DMSO solvent control. The p-H3 and polyploidy endpoints were measured based on their frequencies among all events (i.e., all 2n–4n and polyploidy (8n) DNA content). The equations for calculating γH2AX shift, nuclear p53 shift, % polyploidy, and % p-H3 positive events are shown below.
Latex microspheres were used as counting beads to determine nuclear density.
Litron developed Global Evaluation Factors (GEF) to identify a biologically significant increase in select biomarker levels.
A clastogenic or aneugenic call required two successive concentrations that met or exceeded the GEFs in at least 2 of the 4 respective MoA biomarkers. Chemicals that met or exceeded two GEFs in a single non-cytotoxic concentration were designated as “weak” responses. In cases where both clastogen and aneugen biomarkers exceeded the GEF the MoA was considered pan-genotoxic. In cases where less than two biomarkers met the GEFs, the call was non-genotoxic.

[2] = system: human lymphoblastoid TK6 cells; experiment: In vitro MicroFlow assay (flow cytometry-based micronucleus test); settings: for MicroFlow summary classification (MN induction): TK6 cells, 4H exposure, 24-h sampling; for MicroFlow %MN response (text): positive: >2.5 fold-increase in %MN and p < 0.05 vs vehicle
[3] = system: human lymphoblastoid TK6 cells; experiment: TGx-DDI transcriptomic biomarker classification (TempO-Seq S1500+) and BMC modeling; settings: for TGx-DDI summary classification: TK6 cells, 4H exposure; for TGx-DDI classification: overall call from 2-DC, PCA, NSC-PA, S9 condition as in Figure 1; for Strength / consistency of TGx-DDI response (text): across concentrations and the three statistical analyses
[4] = system: human lymphoblastoid TK6 cells; experiment: Integrated NAM-based test strategy (TGx-DDI + MicroFlow + MultiFlow; ToxPi integration of BMCs); settings: for Integrated hazard conclusion: from TGx-DDI, MicroFlow and MultiFlow calls
[5] = +S9 (rat liver S9), 3 h recovery

## COc1cc([N+](=O)[O-])ccc1O [NSACB 6, 2-methoxy-4-nitrophenol]
[1]; +S9
  MultiFlow summary classification (call and MoA): -
[1]; -S9
  MultiFlow summary classification (call and MoA): -
[1]
  MultiFlow MoA classification: non-genotoxic
  MultiFlow biomarkers with responses: moderate to robust response increase in one of the aneugenic biomarkers (i.e., 4H p-H3)
[2]; +S9
  MicroFlow summary classification (MN induction): +
[2]; -S9
  MicroFlow summary classification (MN induction): +
[2]
  MicroFlow %MN response (text): robust fold-increase in %MN with a clear concentration-response relationship
[3]; [5]
  TGx-DDI summary classification: -
[3]
  TGx-DDI classification: non-DDI
[4]
  Integrated hazard conclusion: likely irrelevant positives in the MN test

## CCN(CC)c1cccc(O)c1 [NSACB 4, 3-diethylaminophenol]
[1]; +S9
  MultiFlow summary classification (call and MoA): + C/A
[1]; -S9
  MultiFlow summary classification (call and MoA): + C
[1]
  MultiFlow MoA classification: pan-genotoxicant
  MultiFlow biomarkers with responses: clastogen biomarkers 4H p53 and 4H ɣH2AX, as well as aneugen marker 4H p-H3 and pan-genotoxic biomarker 24H p53
[3]; [5]
  TGx-DDI summary classification: +
[3]
  Strength / consistency of TGx-DDI response (text): weaker DDI responses
  TGx-DDI classification: DDI
[4]
  Integrated hazard conclusion: genotoxic in vitro, causing DNA damage via a clastogenic MoA

## Cc1ccc(O)c(N)c1 [NSACB 2, 2-amino-4-methylphenol]
[1]
  Strength of MultiFlow biomarker response (text): most robust increases
  MultiFlow MoA classification: clastogens
  MultiFlow biomarkers with responses: 4H ɣH2AX and 24H p53
[1]; +S9
  MultiFlow summary classification (call and MoA): + C
[1]; -S9
  MultiFlow summary classification (call and MoA): -
[2]; +S9
  MicroFlow summary classification (MN induction): +
[2]; -S9
  MicroFlow summary classification (MN induction): +
[2]
  MicroFlow %MN response (text): variable responses with a significant increase observed only at the highest concentration
[3]; [5]
  TGx-DDI summary classification: +
[3]
  Strength / consistency of TGx-DDI response (text): weaker DDI responses
  TGx-DDI classification: DDI
[4]
  Integrated hazard conclusion: genotoxic in vitro, causing DNA damage via a clastogenic MoA

## COc1cc([C@@H]2c3cc4c(cc3[C@@H](O[C@@H]3O[C@@H]5CO[C@@H](C)O[C@H]5[C@H](O)[C@H]3O)[C@H]3COC(=O)[C@H]23)OCO4)cc(OC)c1O [EPEG, Etoposide, reference compound]
[1]; +S9
  MultiFlow summary classification (call and MoA): + C
[1]; -S9
  MultiFlow summary classification (call and MoA): + C
[2]; +S9
  MicroFlow summary classification (MN induction): +
[2]; -S9
  MicroFlow summary classification (MN induction): +
[2]
  MicroFlow %MN response (text): significant fold-increases in %MN
[3]; -S9
  TGx-DDI summary classification: +
[3]; BMR 1 standard deviation, compounds with concordant positive calls
  TGx-DDI BMC potency ranking (bootstrapped median gene BMC): lowest median gene BMC
[3]
  TGx-DDI classification: DDI
[4]; six endpoints: TGx-DDI, MN, 4H/24H p53, 4H/24H ɣH2AX
  ToxPi profile of multiplexed endpoint BMCs: most potent for five of the six endpoints examined

## Cc1cc(C)n(CO)n1 [NSACB 3, 3,5-dimethylpyrazole-1-methanol]
[1]
  Strength of MultiFlow biomarker response (text): more moderate responses
  MultiFlow MoA classification: clastogens
  MultiFlow biomarkers with responses: 4H p53 and 4H ɣH2AX
[1]; +S9
  MultiFlow summary classification (call and MoA): + C
[1]; -S9
  MultiFlow summary classification (call and MoA): + C
[2]; +S9
  MicroFlow summary classification (MN induction): +
[2]; -S9
  MicroFlow summary classification (MN induction): +
[2]
  MicroFlow %MN response (text): variable responses with a significant increase observed only at the highest concentration
[3]; [5]
  TGx-DDI summary classification: +
[3]
  Strength / consistency of TGx-DDI response (text): weaker DDI responses
  TGx-DDI classification: DDI
[4]
  Integrated hazard conclusion: genotoxic in vitro, causing DNA damage via a clastogenic MoA
